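1) Cells in 96-well plates. 2) Compound, 48 h, 5 concentrations. 3) Linear interpolation between surrounding doses. 4) Unreached endpoint = highest concentration. Here, GI50 denotes the concentration required for 50% inhibition of growth.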 Activity calls are given as the source filed them. Cut-off read from the data, not from the text of the source: active = GI50 up to about 1.1 µM and inactive = higher.
Experiments:
Assay in all cases: DTP human tumour cell line panel, 48 h
NCI-H522 = test system: NCI-H522
SF-295 = test system: SF-295
K562 = test system: K562
CCRF-CEM = test system: CCRF-CEM
SK-MEL-28 = test system: SK-MEL-28
EKVX = test system: EKVX
NCI-H23 = test system: NCI-H23
M14 = test system: M14
UO-31 = test system: UO-31
HT-29 = test system: HT-29
SN12C = test system: SN12C
MOLT-4 = test system: MOLT-4
COLO 205 = test system: COLO 205
SW-620 = test system: SW-620
HOP-62 = test system: HOP-62
786-0 = test system: 786-0
RPMI-8226 = test system: RPMI-8226
OVCAR-8 = test system: OVCAR-8
RXF 393 = test system: RXF 393

Measured: GI50

C1=Cc2nc1c(-c1ccncc1)c1ccc([n-]1)c(-c1ccncc1)c1nc(c(-c3ccncc3)c3ccc([n-]3)c2-c2ccncc2)C=C1.[Zn+2]
inactive: NCI-H522 > 100 µM | SF-295 > 100 µM | K562 > 100 µM | CCRF-CEM > 100 µM | SK-MEL-28 > 100 µM | EKVX > 100 µM | NCI-H23 > 100 µM | M14 > 100 µM | UO-31 > 100 µM | HT-29 > 100 µM | SN12C > 100 µM | MOLT-4 > 100 µM | COLO 205 > 100 µM | SW-620 > 100 µM | HOP-62 > 100 µM | 786-0 > 100 µM | RPMI-8226 > 100 µM | OVCAR-8 > 100 µM

O=C(COc1ccccc1Cl)N1N=C(c2ccc(Cl)cc2)CC1(O)c1ccccc1 (centres undefined)
inactive: NCI-H522 > 100 µM | SF-295 > 100 µM | K562 > 100 µM | SK-MEL-28 > 100 µM | NCI-H23 > 100 µM | M14 > 100 µM | UO-31 > 100 µM | HT-29 > 100 µM | SN12C > 100 µM | MOLT-4 > 100 µM | COLO 205 > 100 µM | SW-620 > 100 µM | HOP-62 > 100 µM | 786-0 > 100 µM | RPMI-8226 > 100 µM | OVCAR-8 > 100 µM

CC(=O)OCC12CC(CC1OC(C)=O)c1ccccc12 (centres undefined)
inactive: SF-295 > 100 µM | K562 > 100 µM | CCRF-CEM > 100 µM | SK-MEL-28 > 100 µM | NCI-H23 > 100 µM | M14 > 100 µM | UO-31 > 100 µM | HT-29 > 100 µM | SN12C > 100 µM | MOLT-4 > 100 µM | COLO 205 > 100 µM | SW-620 > 100 µM | HOP-62 > 100 µM | 786-0 > 100 µM | RPMI-8226 > 100 µM | OVCAR-8 > 100 µM

Cc1cc2c(c(C#N)c1C)NC(=O)CCC2=O
inactive: SF-295 > 100 µM | K562 > 100 µM | RXF 393 64 µM | CCRF-CEM > 100 µM | SK-MEL-28 > 100 µM | EKVX > 100 µM | NCI-H23 > 100 µM | M14 > 100 µM | UO-31 16.5 µM | HT-29 > 100 µM | SN12C > 100 µM | MOLT-4 > 100 µM | COLO 205 > 100 µM | SW-620 > 100 µM | HOP-62 > 100 µM | 786-0 > 100 µM | RPMI-8226 > 100 µM | OVCAR-8 > 100 µM

Cc1ccc(S(=O)(=O)OCC23CCC(C4CC42)C2CC23)cc1 (centres undefined)
inactive: SF-295 50.8 µM | K562 52.4 µM | CCRF-CEM 22.8 µM | SK-MEL-28 > 100 µM | NCI-H23 48.8 µM | M14 > 100 µM | UO-31 44.2 µM | HT-29 43.8 µM | SN12C > 100 µM | MOLT-4 50.8 µM | COLO 205 95.9 µM | SW-620 > 100 µM | HOP-62 52.7 µM | 786-0 > 100 µM | RPMI-8226 36.3 µM | OVCAR-8 > 100 µM

CCOC(=O)C(C(=O)c1ccccc1-c1ccccc1C(=O)O)=P(c1ccccc1)(c1ccccc1)c1ccccc1
inactive: SF-295 31.9 µM | K562 20 µM | RXF 393 37.2 µM | CCRF-CEM 20.7 µM | SK-MEL-28 18.7 µM | EKVX 32.9 µM | NCI-H23 20 µM | M14 38.5 µM | UO-31 > 10 µM | HT-29 25 µM | SN12C 30.5 µM | MOLT-4 24.2 µM | COLO 205 19.1 µM | SW-620 31.3 µM | HOP-62 18.8 µM | 786-0 37.8 µM | RPMI-8226 13.9 µM | OVCAR-8 16.9 µM

NC(=O)/C(=N\NC(=O)C[n+]1ccccc1)C1NC(=O)NC1=O (centres undefined)
inactive: SF-295 > 100 µM | K562 > 100 µM | RXF 393 > 100 µM | CCRF-CEM > 100 µM | SK-MEL-28 > 100 µM | EKVX > 100 µM | NCI-H23 > 100 µM | M14 > 100 µM | UO-31 > 100 µM | HT-29 > 100 µM | SN12C > 100 µM | MOLT-4 > 100 µM | COLO 205 32.7 µM | SW-620 33.6 µM | HOP-62 > 100 µM | 786-0 > 100 µM | RPMI-8226 > 100 µM | OVCAR-8 > 100 µM

C[C@@H]1CC[C@@]2(C)OC(c3ccccc3)[C@H](CO)N2C1=O (some centres undefined)
inactive: SF-295 > 100 µM | K562 > 100 µM | RXF 393 > 100 µM | SK-MEL-28 > 100 µM | EKVX > 100 µM | NCI-H23 > 100 µM | HT-29 > 100 µM | SN12C > 100 µM | COLO 205 > 100 µM | SW-620 > 100 µM | HOP-62 > 100 µM | 786-0 > 100 µM | RPMI-8226 > 100 µM | OVCAR-8 > 100 µM

From ChEMBL document CHEMBL1201862, “PubChem BioAssay data set” (2004)
